# Measured values reported in US11236086B2, “Substituted pyrrolopyridines as inhibitors of activin receptor-like kinase” (BLUEPRINT MEDICINES CORPORATION, priority 2017, dated 2022).
# What was measured:
# [1] = target: T1, ALK2R206H (mutant ALK2, N-terminally tagged with GST) (Homo sapiens, UniProt Q04771, R206H); test: ALK binding assay (LANTHASCREEN TR-FRET competitive binding, displacement of Kinase Tracer 178); conditions: read-out: Binding Assay (IC50 class)
# T1 construct: purchased Carna Bioscience or ThermoFisher 09-148 or PV6232
# T1 sequence (Q04771 21-509 R206H): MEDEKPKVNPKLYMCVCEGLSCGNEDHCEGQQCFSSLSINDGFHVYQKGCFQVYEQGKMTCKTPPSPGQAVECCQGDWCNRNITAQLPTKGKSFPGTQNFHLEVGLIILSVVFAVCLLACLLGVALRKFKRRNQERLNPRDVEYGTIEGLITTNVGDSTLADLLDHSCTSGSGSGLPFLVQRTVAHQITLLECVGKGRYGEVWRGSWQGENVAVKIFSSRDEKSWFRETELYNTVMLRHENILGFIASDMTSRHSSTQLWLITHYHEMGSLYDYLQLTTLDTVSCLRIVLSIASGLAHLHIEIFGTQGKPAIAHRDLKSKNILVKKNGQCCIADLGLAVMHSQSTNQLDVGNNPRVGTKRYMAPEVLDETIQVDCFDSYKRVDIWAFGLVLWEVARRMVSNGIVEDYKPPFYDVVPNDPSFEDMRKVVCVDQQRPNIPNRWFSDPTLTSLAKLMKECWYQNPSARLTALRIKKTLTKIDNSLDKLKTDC
# Protocol: Example 10 ALK Binding Assays
# Binding assays were conducted using the LANTHASCREEN® technology (ThermoFisher Scientific). LANTHASCREEN® is a competitive binding, displacement assay where the assumed steady state occupancy of the binding site is measured using a time-resolved, fluorescence energy transfer (TR-FRET) readout between a fluorescent tracer and Europium (Eu)-tagged antibody specific for the kinase or expression tag (e.g., GST) of interest. Displacement of the tracer by a compound of the disclosure reduces, and is directly proportional to, the TR-FRET between the tracer and the antibody. Tracer was used at a concentration equal to or near to its Kd for the kinase. The Eu-tagged antibody was typically used in excess to ensure sampling of all competent protein capable of binding the tracer.
# For these assays, a mutant ALK2 was used that was N-terminally tagged with GST (ALK2R206H Carna Bioscience (09-148) or ALK2R206H ThermoFisher (PV6232)); a Eu-tagged anti-GST antibody (ThermoFisher) and Kinase Tracer 178 (ThermoFisher).
# In all cases, the kinase (2-5 nM) was mixed with Eu-tagged antibody (4-10 nM) mix and tracer (50 nM) were incubated with test compound titrations prepared in 100% DMSO (1% DMSO final) for 30 minutes at room temperature. All reagents and compounds were dissolved in Kinase Buffer A (ThermoFisher) to achieve the final concentration. The plates were read on a PerkinElmer EnVision® multilabel plate reader or a BioTek Synergy Neo plate reader, and the assay signal was represented as a ratio of the TR-FRET emission (λex 330 nm, λ^em […] and λ^em 665 nm). This readout was normalized to 0% and 100% inhibited control wells, plotted against inhibitor concentration, and fitted to a 4-parameter log dose response curve.
# The results of this assay are shown in Table 3 in the column labelled “Binding Assay” wherein “A” represents an IC50 of less than or equal to 10 nM; “B” represents an IC50 of greater than 10 nM and less than or equal to 50 nM; and “C” represents an IC50 of greater than 50 nM. Blank values in the table indicate that the particular compound was not tested in this assay.
# human ALK2 R206H = target: T2, human ALK2 R206H (Homo sapiens, UniProt Q04771, R206H); test: Cell-based ALK2-R206H cell activity assay (Smad1-Ser463/Ser465 phosphorylation by AlphaLISA in HEK293-ALK2-R206H cells); conditions: phospho-Smad1 AlphaLISA, read-out: Cell Line (Cell Assay, IC50 class)
# T2 construct: expressed in transfected cells; host or cells: HEK293 (ATCC CRL1573), lentivirus transduction, blasticidin selection
# T2 sequence (Q04771 21-509 R206H): T1 sequence (Q04771 21-509 R206H)
# Protocol: Example 11. Cell-Based ALK2-R206H Cell Activity Assay
# A HEK293 (ATCC, Cat No. CRL1573) based stable cell line expressing human ALK2 R206H cDNA (synthesized by GeneScript, Piscataway, N.J.) and a FLAG tag at the C-terminus was generated by lentivirus transduction and subsequent blasticidin (Life Technologies, Cat No. A1113902) selection at 10 μg/ml for >2 wks. This cell line was named HEK293-ALK2-R206H.
# B. Measurement of Smad1-Ser463/Ser465 Phosphorylation by AlphaLISA
# HEK293-ALK2-R206H cells were grown, harvested, and then resuspended in serum-free, phenol red-free DMEM high glucose media (Life Technologies, Cat No. 31053). The media also contained 50 units/ml penicillin and 50 μg/ml streptomycin (Life Technologies, Cat. No. 15070-063). HEK293-ALK2-R206H cells were then plated in white opaque 384-wells microplates (2×10^4/well) (OptiPlate-384, PerkinElmer, Waltham, Mass., Cat No. 6007299) overnight (>16h) at 37° C. 5% CO2 for use in the assay.
# Test compounds were first diluted to 4 mM or 0.4 mM and then serially diluted 3-fold into 10 different concentrations using DMSO. Each concentration of compound was further diluted 40-fold with phenol red-free DMEM (Life Technologies, Cat No. 31053). 2 μl of the diluted compounds were then dispensed into the HEK293-ALK2-R206H cell-containing wells of the microplates in duplicates. In this way, each compound was tested in 10 doses (3-fold serial dilution with the top concentration being 10 μM or 1 μM). Liquid handling was achieved using a Bravo Automated Liquid Handling Platform (Agilent Technologies). DMSO without compound was used as a negative control. The positive control was 1 μM LDN193189, a known bone morphogenetic protein (BMP inhibitor).
# After 2-3 hours of incubation with test compound or control, the cells were lysed and signal was developed using ALPHASCREEN® SUREFIRE® SMAD1 (p-Ser463/465) cellular kinase assay kit (PerkinElmer, Cat No. TGRSM1S10K) following the manufacturer's recommended protocol. The microplates were read using Perkin Elmer ENVISION® plate reader (emission […]). The signal reflected the level of phospho-Ser/463/465-Smad1 in the lysate. The raw data were plotted using the DMSO negative and LDN193189 positive controls as the 0% and 100% inhibition, respectively. The 10-point dose response curve was used to calculate the IC50 values.
# The results of this assay are shown in Table 3 in the column labeled “Cell Assay” wherein “A” represents an IC50 of less than or equal to 100 nM; “B” an IC50 of greater than 100 nM and less than or equal to 500 nM; “C” an IC50 of greater than 500 nM. Blank values in the table indicate that the particular compound was not tested in this assay.
SMILES,IC50 [1] [nM],IC50 (human ALK2 R206H) [nM]
O=C(C1CC1)N1CCN(c2ccnc3[nH]c(-c4ncco4)cc23)CC1 [Compound 1],10 to 50,> 500
CCC(=O)N1CCN(c2ccnc3[nH]c(-c4cnn(C)c4)cc23)CC1 [Compound 2],≤ 10,> 500
Cn1cc(-c2cc3c(N4CCN(C(=O)C5CC5)CC4)ccnc3[nH]2)cn1 [Compound 6],≤ 10,100 to 500
CCOC(=O)N1CCN(c2ccnc3[nH]c(-c4ccccn4)cc23)CC1 [Compound 7],≤ 10,≤ 100
CCOC(=O)N1CCN(c2ccnc3[nH]c(-c4cccnc4)cc23)CC1 [Compound 8],≤ 10,100 to 500
CCOC(=O)N1CCN(c2ccnc3[nH]c(-c4cnn(C)c4)cc23)CC1 [Compound 11],≤ 10,100 to 500
CCOC(=O)N1CCN(c2ccnc3[nH]c(-c4ccn(C)n4)cc23)CC1 [Compound 12],≤ 10,100 to 500
CCOC(=O)N1CCN(c2ccnc3[nH]c(-c4cn(C)nn4)cc23)CC1 [Compound 13],≤ 10,100 to 500
O=C(C1CC1)N1CCN(c2ccnc3[nH]c(-c4ccc(F)cc4)cc23)CC1 [Compound 19],≤ 10,100 to 500
Cn1cc(-c2cc3c(N4CCN(C(=O)CC5CC5)CC4)ccnc3[nH]2)cn1 [Compound 21],≤ 10,100 to 500
CCn1cc(-c2cc3c(N4CCN(C(=O)C5CC5)CC4)ccnc3[nH]2)cn1 [Compound 23],≤ 10,100 to 500
CCOC(=O)N1CCN(c2ccnc3[nH]c(-c4ccc(C)cn4)cc23)CC1 [Compound 24],≤ 10,100 to 500
CCOC(=O)N1CCN(c2ccnc3[nH]c(-c4cccc(C)n4)cc23)CC1 [Compound 26],≤ 10,100 to 500
Cn1cnc(-c2cc3c(N4CCN(C(=O)OC5CC5)CC4)ccnc3[nH]2)c1 [Compound 29],≤ 10,≤ 100
Cn1cc(-c2cc3c(N4CCN(C(=O)OC5CC5)CC4)ccnc3[nH]2)cn1 [Compound 30],≤ 10,≤ 100
CC(C)CC(=O)N1CCN(c2ccnc3[nH]c(-c4cnn(C)c4)cc23)CC1 [Compound 32],10 to 50,100 to 500
CCC(C)C(=O)N1CCN(c2ccnc3[nH]c(-c4cnn(C)c4)cc23)CC1 (centres unmarked) [Compound 33],10 to 50,100 to 500
Cc1cnc(-c2cc3c(N4CCN(C(=O)C5CC5)CC4)ccnc3[nH]2)s1 [Compound 34],≤ 10,100 to 500
Cc1csc(-c2cc3c(N4CCN(C(=O)C5CC5)CC4)ccnc3[nH]2)n1 [Compound 35],≤ 10,100 to 500
Cn1cc(-c2cc3c(N4CCN(C(=O)[C@@H]5C[C@H]5F)CC4)ccnc3[nH]2)cn1 [Compound 37],≤ 10,≤ 100

# Second part, the molecule after the results:
IC50 [1] [nM],IC50 (human ALK2 R206H) [nM],SMILES
≤ 10,≤ 100,CCOC(=O)N1CCN(c2ccnc3[nH]c(-c4cnn(C)c4)c(C)c23)CC1 [Compound 38]
≤ 10,100 to 500,CCOC(=O)N1CCN(c2ccnc3[nH]c(-c4cc(C)n(C)n4)cc23)CC1 [Compound 39]
≤ 10,100 to 500,CCCOC(=O)N1CCN(c2ccnc3[nH]c(-c4cnn(C)c4)cc23)CC1 [Compound 40]
≤ 10,100 to 500,CC(C)OC(=O)N1CCN(c2ccnc3[nH]c(-c4cnn(C)c4)cc23)CC1 [Compound 41]
≤ 10,≤ 100,N#Cc1ccc(-c2cc3c(N4CCN(C(=O)C5CC5)CC4)ccnc3[nH]2)cc1 [Compound 45]
≤ 10,≤ 100,CCOC(=O)N1CCN(c2ccnc3[nH]c(-c4csc(C)n4)cc23)CC1 [Compound 46]
≤ 10,100 to 500,CCOC(=O)N1CCN(c2ccnc3[nH]c(-c4nc(C)cs4)cc23)CC1 [Compound 48]
≤ 10,100 to 500,CCOC(=O)N1CCN(c2ccnc3[nH]c(-c4ncc(C)s4)cc23)CC1 [Compound 49]
≤ 10,≤ 100,CCOC(=O)N1CCN(c2ccnc3[nH]c(-c4cnn(C)c4)c(F)c23)CC1 [Compound 50]
≤ 10,100 to 500,CCOC(=O)N1CCN(c2ccnc3[nH]c(-c4cn(C)nc4F)cc23)CC1 [Compound 51]
10 to 50,100 to 500,CCc1ccc(-c2cc3c(N4CCN(C(=O)C5CC5)CC4)ccnc3[nH]2)cc1 [Compound 52]
≤ 10,≤ 100,CCOC(=O)N1CCN(c2ccnc3[nH]c(-c4ccc(C#N)cc4)cc23)CC1 [Compound 53]
≤ 10,100 to 500,Cn1cc(-c2cc3c(N4CCN(C(=O)[C@H]5C[C@@H]5C#N)CC4)ccnc3[nH]2)cn1 [Compound 54]
≤ 10,100 to 500,Cn1cc(-c2[nH]c3nccc(N4CCN(C(=O)C5CC5)CC4)c3c2C#N)cn1 [Compound 55]
≤ 10,100 to 500,CCOC(=O)N1CCN(c2ccnc3[nH]c(-c4ccc(C#N)cn4)cc23)CC1 [Compound 56]
≤ 10,100 to 500,COc1cccc(-c2cc3c(N4CCN(C(=O)C5CC5)CC4)ccnc3[nH]2)c1 [Compound 59]
≤ 10,100 to 500,COc1ccc(-c2cc3c(N4CCN(C(=O)C5CC5)CC4)ccnc3[nH]2)cc1 [Compound 60]
≤ 10,100 to 500,Cn1cc(-c2cc3c(N4CCN(C(=O)C5CCCC5)CC4)ccnc3[nH]2)cn1 [Compound 64]
≤ 10,≤ 100,CC(C)n1cc(-c2cc3c(N4CCN(C(=O)C5CC5)CC4)ccnc3[nH]2)cn1 [Compound 65]
≤ 10,100 to 500,O=C(OC1COC1)N1CCN(c2ccnc3[nH]c(-c4ccccn4)cc23)CC1 [Compound 66]
